From the supplement of paper PMC9663587

Tests used:
Assay in all cases: area over the GR curve, 72 h; higher = more effect;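 also: Dye Drop or Deep Dye Drop imaging of viable cells in 384-well plates (Hoechst nuclei, LIVE/DEAD dye), nine half-log doses, GR normalized to DMSO controls and time-zero plates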
[1] = system: HCC202
[2] = system: BT474
[3] = system: HS578T
[4] = system: HCC1187
[5] = system: AU565
[6] = system: HCC1569
[7] = system: PDXHCI002
[8] = system: MCF7
[9] = system: MDAMB231
[10] = system: T47D
[11] = system: PDX1258
[12] = system: HCC1395

Row | SMILES | area over the GR curve [1] | area over the GR curve [2] | area over the GR curve [3] | area over the GR curve [4] | area over the GR curve [5] | area over the GR curve [6] | area over the GR curve [7] | area over the GR curve [8] | area over the GR curve [9] | area over the GR curve [10] | area over the GR curve [11] | area over the GR curve [12]
1 | CCC(=O)Nc1ccc(C(=O)Nc2ccc(Nc3ncc4c(n3)N(C)c3ccc(C)cc3C(=O)N4C)cc2)cc1 [FMF-03-145-1] | 0.602 GR | 0.951 GR | 1.07 GR | 1.51 GR | 0.501 GR | 1 GR | 0.915 GR | 0.957 GR | 0.947 GR | 0.979 GR | 1.12 GR | 0.52 GR
2 | COc1cc(N2CCN(C)CC2)ccc1Nc1ncc2c(n1)N(C)c1ccccc1C(=O)N2CC(F)(F)F [FMF-03-146-1] | 0.0146 GR | 0.0118 GR | 0.0103 GR | -0.332 GR | 0.0771 GR | -0.0612 GR | -0.0147 GR | 0.0454 GR | 0.0225 GR | 0.0652 GR | -0.0674 GR | 0.163 GR
3 | CN1CC[C@H](c2c(O)cc(O)c3c(=O)cc(-c4ccccc4Cl)oc23)[C@H](O)C1 [Flavopiridol] (max 1 µM) | 0.273 GR | 0.371 GR | 0.254 GR | 0.0933 GR | 0.368 GR | 0.232 GR | 0.278 GR | 0.36 GR | 0.286 GR | 0.274 GR | 0.341 GR | 0.339 GR
4 | CC(C)n1nc(-c2ccc3oc(N)nc3c2)c2c(N)ncnc21 [INK128/MLN0128] (max 3.162 µM) | 0.581 GR | 0.834 GR | 0.623 GR | 0.416 GR | 0.791 GR | 0.508 GR | 0.122 GR | 0.726 GR | 0.486 GR | 0.689 GR | 0.449 GR | 0.557 GR
5 | CC(C)NC[C@@H](C(=O)N1CCN(c2ncnc3c2[C@H](C)C[C@H]3O)CC1)c1ccc(Cl)cc1 [Ipatasertib/GDC0068] (max 10 µM) | 0.169 GR | 0.344 GR | 0.246 GR | 0.286 GR | 0.147 GR | 0.227 GR | -0.114 GR | 0.26 GR | 0.0065 GR | 0.428 GR | 0.15 GR | 0.278 GR
6 | CN(C)C(=O)c1cc2cnc(Nc3ccc(N4CCNCC4)cn3)nc2n1C1CCCC1 [LEE011/Ribociclib] (max 10 µM) | 0.11 GR | 0.412 GR | 0.351 GR | -0.0536 GR | 0.403 GR | -0.108 GR | 0.123 GR | 0.442 GR | 0.365 GR | 0.668 GR | -0.124 GR | 0.323 GR
7 | CCNC(=O)c1noc(-c2cc(C(C)C)c(O)cc2O)c1-c1ccc(CN2CCOCC2)cc1 [Luminespib/NVP-AUY922] (max 1 µM) | 0.431 GR | 0.781 GR | 0.67 GR | 0.919 GR | 0.689 GR | 0.513 GR | 0.7 GR | 0.513 GR | 0.645 GR | 0.51 GR | 0.608 GR | 0.617 GR
8 | CCOc1cc2ncc(C#N)c(Nc3ccc(OCc4ccccn4)c(Cl)c3)c2cc1NC(=O)/C=C/CN(C)C [Neratinib/HKI272] (max 3.162 µM) | 0.453 GR | 1.43 GR | 0.202 GR | 0.181 GR | 1.15 GR | 0.397 GR | 0.367 GR | 0.142 GR | 0.105 GR | 0.274 GR | 0.154 GR | 0.142 GR
9 | O=C(c1cc(Cc2n[nH]c(=O)c3ccccc23)ccc1F)N1CCN(C(=O)C2CC2)CC1 [Olaparib/AZD2281] (max 10 µM) | 0.127 GR | 0.0431 GR | 0.0997 GR | 0.157 GR | 0.0653 GR | 0.053 GR | 0.167 GR | 0.0554 GR | 0.0581 GR | 0.0229 GR | 0.02 GR | 0.253 GR
10 | CC(=O)O[C@H]1C(=O)[C@@]2(C)[C@H]([C@H](OC(=O)c3ccccc3)[C@]3(O)C[C@H](OC(=O)[C@H](O)[C@@H](NC(=O)c4ccccc4)c4ccccc4)C(C)=C1C3(C)C)[C@]1(OC(C)=O)CO[C@@H]1C[C@@H]2O [Paclitaxel] (max 1 µM) | 0.552 GR | 0.873 GR | 0.954 GR | 1.34 GR | 0.994 GR | 0.663 GR | 0.921 GR | 0.772 GR | 0.702 GR | 0.661 GR | 0.68 GR | 0.839 GR
11 | CS(=O)(=O)N1CCN(Cc2cc3nc(-c4cccc5[nH]ncc45)nc(N4CCOCC4)c3s2)CC1 [Pictilisib/GDC0941] (max 10 µM) | 0.431 GR | 0.588 GR | 0.311 GR | 0.374 GR | 0.646 GR | 0.346 GR | 0.212 GR | 0.506 GR | 0.206 GR | 0.477 GR | 0.23 GR | 0.226 GR
12 | O=C1NC(=NCc2cccs2)SC1=Cc1ccc2ncccc2c1 [R0-3306] (max 10 µM) | 0.14 GR | 0.22 GR | 0.139 GR | 0.017 GR | 0.406 GR | 0.022 GR | 0.0778 GR | 0.0991 GR | 0.0059 GR | 0.14 GR | 0.0971 GR | 0.418 GR
13 | CNCc1ccc(-c2[nH]c3cc(F)cc4c3c2CCNC4=O)cc1 [Rucaparib] (max 10 µM) | 0.207 GR | 0.122 GR | 0.0974 GR | -0.119 GR | 0.0692 GR | -0.0162 GR | 0.0896 GR | 0.0771 GR | 0.0793 GR | 0.0635 GR | 0.204 GR | 0.385 GR
14 | CC1(N)CCN(c2cnc(-c3cccc(Cl)c3Cl)c(N)n2)CC1 [SHP099] (max 10 µM) | 0.051 GR | -0.022 GR | 0.142 GR | -0.341 GR | 0.0263 GR | -0.114 GR | 0.0735 GR | 0.0308 GR | -0.0083 GR | 0.0099 GR | -0.0325 GR | 0.0738 GR
15 | CN1CCN(CCOc2cc(OC3CCOCC3)c3c(Nc4c(Cl)ccc5c4OCO5)ncnc3c2)CC1 [Saracatinib/AZD0530] (max 10 µM) | 0.396 GR | 0.303 GR | 0.159 GR | 0.457 GR | 0.119 GR | 0.188 GR | 0.512 GR | 0.322 GR | 0.269 GR | 0.171 GR | 0.275 GR | 0.111 GR
16 | Cc1cc(C(C)Nc2ccccc2)c2nc(N3CCOCC3)cc(=O)n2c1 (configuration not stated) [TGX221] (max 10 µM) | -0.0253 GR | -0.0718 GR | 0.0668 GR | 0.305 GR | 0.103 GR | 0.0644 GR | -0.0291 GR | -0.0083 GR | 0.0141 GR | -0.0193 GR | -0.0475 GR | 0.0832 GR
17 | CN(C)C/C=C/C(=O)Nc1ccc(C(=O)Nc2cccc(Nc3ncc(Cl)c(-c4c[nH]c5ccccc45)n3)c2)cc1 [THZ1] (max 1 µM) | 0.42 GR | 0.686 GR | 0.518 GR | 0.71 GR | 0.607 GR | 0.363 GR | 0.527 GR | 0.514 GR | 0.356 GR | 0.446 GR | 0.633 GR | 0.609 GR
18 | CN(C)C/C=C/C(=O)Nc1ccc(C(=O)N2CCC[C@@H](Nc3ncc(Cl)c(-c4c[nH]c5ccccc45)n3)C2)cc1 [THZ531] (max 1 µM) | 0.3 GR | 0.572 GR | 0.377 GR | 0.129 GR | 0.42 GR | 0.312 GR | 0.352 GR | 0.344 GR | 0.205 GR | 0.229 GR | 0.457 GR | 0.37 GR
19 | CN(C)C/C=C/C(=O)Nc1ccc(C(=O)Nc2cccc(Nc3cc(-c4c[nH]c5ccccc45)ncn3)c2)cc1 [THZ-P1-2] (max 10 µM) | 0.0733 GR | -0.079 GR | -0.017 GR | 0.331 GR | 0.194 GR | 0.0873 GR | 0.153 GR | 0.292 GR | 0.163 GR | 0.353 GR | 0.572 GR | 0.442 GR
20 | Cc1nc(-c2cn3c(n2)-c2ccc(-c4cnn(C(C)(C)C(N)=O)c4)cc2OCC3)n(C(C)C)n1 [Taselisib/GDC0032] (max 10 µM) | 0.791 GR | 1.43 GR | 0.374 GR | 0.497 GR | 0.97 GR | 0.598 GR | 0.374 GR | 0.768 GR | 0.254 GR | 0.899 GR | 0.278 GR | 0.208 GR
21 | O=C1NC(=O)[C@@H](c2cn3c4c(cccc24)CCC3)[C@@H]1c1c[nH]c2ccccc12 [Tivantinib/ARQ197] (max 10 µM) | 0.277 GR | 0.309 GR | 0.437 GR | 0.891 GR | 0.577 GR | 0.278 GR | 0.528 GR | 0.453 GR | 0.323 GR | 0.365 GR | 0.373 GR | 0.372 GR
22 | Nc1ccc(-c2ccc3ncc4ccc(=O)n(-c5cccc(C(F)(F)F)c5)c4c3c2)cn1 [Torin2] (max 1 µM) | 0.473 GR | 0.604 GR | 0.566 GR | 0.588 GR | 0.657 GR | 0.487 GR | 0.0743 GR | 0.603 GR | 0.386 GR | 0.522 GR | 0.362 GR | 0.441 GR
23 | CC[C@@H]1C(=O)N(C)c2cnc(Nc3ccc(C(=O)N[C@H]4CC[C@H](N5CCN(CC6CC6)CC5)CC4)cc3OC)nc2N1C(C)C [Volasertib/BI6727] (max 1 µM) | 0.38 GR | 0.636 GR | 0.82 GR | 0.883 GR | 0.855 GR | 0.375 GR | 0.831 GR | 0.605 GR | 0.584 GR | 0.385 GR | 0.549 GR | 0.759 GR
24 | O=C(CCCCCCC(=O)Nc1ccccc1)NO [Vorinostat] (max 10 µM) | 0.202 GR | 0.136 GR | 0.269 GR | 0.303 GR | 0.327 GR | 0.163 GR | 0.545 GR | 0.349 GR | 0.282 GR | 0.146 GR | 0.211 GR | 0.099 GR
25 | C=CC(=O)Nc1ccc(C(=O)Nc2[nH]nc3c2CN(C(=O)N[C@H](CN(C)C)c2ccccc2)C3(C)C)cc1 [YKL-5-124] (max 10 µM) | 0.706 GR | 0.944 GR | 0.815 GR | 0.822 GR | 1 GR | 0.736 GR | 0.849 GR | 0.806 GR | 0.878 GR | 0.872 GR | 0.993 GR | 0.874 GR
26 | CN1CCN(C(=O)c2ccc3cc(CCNc4ncnc5ccc(C#N)cc45)ccc3c2)CC1 [senexin b] (max 10 µM) | 0.182 GR | 0.0613 GR | 0.139 GR | -0.306 GR | 0.111 GR | 0.158 GR | -0.125 GR | 0.249 GR | 0.0788 GR | 0.322 GR | 0.125 GR | 0.264 GR
